Measured values as given in PubChem BioAssay (NCI).
Values joined by “and” are separate entries in the source; they are usually repeats but may differ in a detail not shown here. Equal entries are not always repeated.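 Assay format: 96-well plates, 48-hour exposure. GI50 marks 50% less growth. At the TGI there is no net growth.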

Experiments:
Experiment in all cases: growth of human tumour cells (NCI), 48 h
OVCAR-4 ovarian = system: OVCAR-4 ovarian
A498 renal = system: A498 renal
SF-268 CNS = system: SF-268 CNS
NCI-H522 lung = system: NCI-H522 lung
MDA-MB-231 breast = system: MDA-MB-231 breast
COLO 205 colon = system: COLO 205 colon
T-47D breast = system: T-47D breast
OVCAR-8 ovarian = system: OVCAR-8 ovarian
LOX IMVI melanoma = system: LOX IMVI melanoma
EKVX NSCLC = system: EKVX NSCLC

## O=C1C(NCCO)=C(N2CC2)C(=O)C(NCCO)=C1N1CC1
OVCAR-4 ovarian
  TGI: > 70.8 µM
A498 renal
  TGI: > 100 µM
SF-268 CNS
  TGI: 76.8 µM
NCI-H522 lung
  TGI: 70.6 µM
MDA-MB-231 breast
  TGI: > 100 µM
COLO 205 colon
  TGI: > 90.3 µM
T-47D breast
  TGI: > 100 µM
OVCAR-8 ovarian
  TGI: > 85.7 µM
LOX IMVI melanoma
  TGI: 41.3 µM
EKVX NSCLC
  TGI: > 100 µM

## O=C(Nc1ccccc1Cl)c1cnc2ccc(C3CCNCC3)cn12
OVCAR-4 ovarian
  GI50: > 75.1 µM
  TGI: > 100 µM
A498 renal
  GI50: 1.49 µM
  TGI: > 45.5 µM
SF-268 CNS
  GI50: 9.04 µM
  TGI: > 100 µM
NCI-H522 lung
  GI50: 1.06 µM
  TGI: > 100 µM
MDA-MB-231 breast
  GI50: 2.48 µM
  TGI: 59.7 µM
COLO 205 colon
  GI50: 2.85 µM
  TGI: 25 µM
T-47D breast
  GI50: 5.53 µM
  TGI: > 100 µM
OVCAR-8 ovarian
  GI50: 13.5 µM
  TGI: > 100 µM
LOX IMVI melanoma
  GI50: 2.07 µM
  TGI: 17 µM
EKVX NSCLC
  GI50: 11.7 µM
  TGI: > 100 µM

## FC(F)(F)c1ccc2c(c1)N(CCCN1CCN(C3CC3)CC1)c1ccccc1S2
OVCAR-4 ovarian
  GI50: 11.1 µM
  TGI: 23.7 µM
A498 renal
  GI50: 11 µM
  TGI: 23.3 µM
SF-268 CNS
  GI50: 12.7 µM
  TGI: 26.8 µM
NCI-H522 lung
  GI50: 11.5 µM
  TGI: 25.8 µM
MDA-MB-231 breast
  GI50: 10.9 µM
  TGI: 26.1 µM
COLO 205 colon
  GI50: 9.45 µM
  TGI: 21.5 µM
T-47D breast
  GI50: 12.5 µM
  TGI: 26.9 µM
OVCAR-8 ovarian
  GI50: 13 µM
  TGI: 26.8 µM
LOX IMVI melanoma
  GI50: 13.7 µM
  TGI: 28.3 µM
EKVX NSCLC
  GI50: 6.09 µM
  TGI: 22.2 µM

## Cc1cccc2c3c(sc12)C(c1ccc(Cl)cc1)C(C#N)=C(/N=C/c1ccc(Cl)cc1)O3 (centres undefined)
OVCAR-4 ovarian
  GI50: 2.17 µM
  TGI: > 100 µM
A498 renal
  GI50: 0.0748 µM
  TGI: 0.953 µM
SF-268 CNS
  GI50: 1.93 µM
  TGI: 46.2 µM
NCI-H522 lung
  GI50: 0.304 µM
  TGI: 3.12 µM
MDA-MB-231 breast
  GI50: 0.754 µM
  TGI: 20.6 µM
COLO 205 colon
  GI50: 0.456 µM
T-47D breast
  GI50: 0.625 µM
  TGI: > 100 µM
OVCAR-8 ovarian
  GI50: 0.46 µM
  TGI: > 100 µM
LOX IMVI melanoma
  GI50: 0.651 µM
  TGI: > 100 µM
EKVX NSCLC
  GI50: 0.565 µM
  TGI: > 100 µM

## COc1ccc(C2=NNC(c3ccc(-c4ccc(OC)cc4[N+](=O)[O-])o3)C2)cc1 (centres undefined)
OVCAR-4 ovarian
  GI50: > 100 µM
  TGI: > 100 µM
A498 renal
  GI50: 31.6 µM
  TGI: > 100 µM
SF-268 CNS
  GI50: 20.3 µM
  TGI: 53.2 µM
NCI-H522 lung
  GI50: 34.9 µM
  TGI: > 100 µM
MDA-MB-231 breast
  GI50: 1.89 µM
  TGI: 43.6 µM
COLO 205 colon
  GI50: > 100 µM
  TGI: > 100 µM
T-47D breast
  GI50: 18.5 µM
  TGI: 88.1 µM
OVCAR-8 ovarian
  GI50: 21.2 µM
  TGI: 75.5 µM
LOX IMVI melanoma
  GI50: 41.9 µM
  TGI: > 100 µM
EKVX NSCLC
  GI50: 18.4 µM
  TGI: > 100 µM

## O=C(O)CC(Cc1ccc2c(c1)OCO2)C(=O)O (centres undefined)
OVCAR-4 ovarian
  TGI: > 100 µM
A498 renal
  TGI: > 100 µM
SF-268 CNS
  TGI: > 100 µM
NCI-H522 lung
  TGI: > 100 µM
MDA-MB-231 breast
  TGI: > 100 µM
COLO 205 colon
  TGI: > 100 µM
T-47D breast
  TGI: > 100 µM
OVCAR-8 ovarian
  TGI: > 100 µM
LOX IMVI melanoma
  TGI: > 100 µM
EKVX NSCLC
  TGI: > 100 µM

## CC(C)(C)Cn1c(N)nc2ccc(-c3[nH]c(C(C)(C)C)nc3-c3ccc(F)cc3)nc21
OVCAR-4 ovarian
  GI50: 13.3 µM
  TGI: 40.4 µM
A498 renal
  GI50: 2.14 µM
  TGI: 18.2 µM
SF-268 CNS
  GI50: 10.6 µM
  TGI: 28.7 µM
NCI-H522 lung
  GI50: 8.5 µM
  TGI: 23.8 µM
MDA-MB-231 breast
  GI50: 12.3 µM
  TGI: 29.5 µM
COLO 205 colon
  GI50: 7.76 µM
  TGI: 21.7 µM
T-47D breast
  GI50: 5.34 µM
  TGI: 23.7 µM
OVCAR-8 ovarian
  GI50: 10.8 µM
  TGI: 25.8 µM
LOX IMVI melanoma
  GI50: 12.8 µM
  TGI: 27.5 µM
EKVX NSCLC
  GI50: 3.19 µM
  TGI: 18.8 µM

## COc1cc(N2CCC(N(C)C)CC2)ccc1Nc1ncc(Cl)c(Nc2ccccc2P(C)(C)=O)n1
OVCAR-4 ovarian
  GI50: 0.448 µM and 0.615 µM
  TGI: 10.8 µM and > 10 µM
A498 renal
  GI50: 0.128 µM and 0.086 µM
  TGI: 0.476 µM and 0.53 µM
SF-268 CNS
  GI50: 1.17 µM and 0.386 µM
  TGI: 5.04 µM and 2.76 µM
NCI-H522 lung
  GI50: 0.483 µM and 0.115 µM
  TGI: 6.08 µM and 3.32 µM
MDA-MB-231 breast
  GI50: 1.22 µM and 0.333 µM
  TGI: 7.37 µM and > 5.39 µM
COLO 205 colon
  GI50: 0.252 µM and 0.0658 µM
  TGI: 1.12 µM and 0.33 µM
T-47D breast
  GI50: 7.03 µM and 1.43 µM
  TGI: 38.5 µM and > 10 µM
OVCAR-8 ovarian
  GI50: 2.77 µM and 0.926 µM
  TGI: 23.4 µM and > 10 µM
LOX IMVI melanoma
  GI50: 0.394 µM and 0.175 µM
  TGI: 1.82 µM and 0.68 µM
EKVX NSCLC
  GI50: 0.344 µM
  TGI: > 7.38 µM

## CC1CCC2(OC1)OC1CC3C4CC=C5CC(OC6OC(CO)C(OC7OC(C)C(OC8OC(C)C(O)C(O)C8O)C(O)C7O)C(O)C6OC6OC(C)C(O)C(O)C6O)CCC5(C)C4CCC3(C)C1C2C (centres undefined)
OVCAR-4 ovarian
  TGI: 1.33 µM
A498 renal
  TGI: 1.55 µM
SF-268 CNS
  TGI: 2.03 µM
NCI-H522 lung
  TGI: 2.17 µM
MDA-MB-231 breast
  TGI: 1.33 µM
COLO 205 colon
  TGI: 3.06 µM
T-47D breast
  TGI: 2.89 µM
OVCAR-8 ovarian
  TGI: 1.59 µM
LOX IMVI melanoma
  TGI: 0.733 µM
EKVX NSCLC
  TGI: 2.1 µM

## O=[N+]([O-])c1cccc(-c2nc3sccn3c2-c2ccnc(NCCCNS(=O)(=O)c3ccc(F)cc3)n2)c1
OVCAR-4 ovarian
  GI50: 1.65 µM
  TGI: 6.55 µM
A498 renal
  GI50: 1.87 µM
  TGI: > 100 µM
SF-268 CNS
  GI50: 2.92 µM
  TGI: > 100 µM
NCI-H522 lung
  GI50: 1.59 µM
  TGI: 6.02 µM
MDA-MB-231 breast
  GI50: 4.98 µM
  TGI: > 100 µM
COLO 205 colon
  GI50: 2.44 µM
  TGI: 8.24 µM
T-47D breast
  GI50: 0.303 µM
  TGI: 2.82 µM
OVCAR-8 ovarian
  GI50: 1.74 µM
  TGI: 22.2 µM
LOX IMVI melanoma
  GI50: 2.57 µM
  TGI: 10.4 µM
EKVX NSCLC
  GI50: 2.9 µM
  TGI: > 100 µM

## COc1cc2c(cc1OCCCCCOc1cc(-c3ccc(F)cc3)nc(C)n1)N=C[C@@H]1CCCN1C2=O
OVCAR-4 ovarian
  GI50: > 40.6 µM
  TGI: > 79.7 µM
A498 renal
  GI50: > 100 µM
  TGI: > 100 µM
SF-268 CNS
  GI50: > 32.5 µM
  TGI: > 65.2 µM
NCI-H522 lung
  GI50: > 20.5 µM
  TGI: > 42.3 µM
MDA-MB-231 breast
  GI50: > 39.5 µM
  TGI: > 65.5 µM
COLO 205 colon
  GI50: 4.32 µM
  TGI: 7.64 µM
T-47D breast
  GI50: 6.27 µM
  TGI: 59.6 µM
OVCAR-8 ovarian
  GI50: > 37.3 µM
  TGI: > 54.7 µM
LOX IMVI melanoma
  GI50: 11.1 µM
  TGI: 31 µM
EKVX NSCLC
  GI50: > 50.1 µM
  TGI: > 81 µM

## CN(C)c1cccc2[nH]c(-c3[nH]ncc3Nc3ccnc(N)n3)nc12
OVCAR-4 ovarian
  GI50: 0.0349 µM
  TGI: 0.706 µM
A498 renal
  GI50: 0.013 µM
  TGI: 0.037 µM
SF-268 CNS
  GI50: 0.0179 µM
  TGI: 0.104 µM
NCI-H522 lung
  GI50: 0.0221 µM
  TGI: 0.166 µM
MDA-MB-231 breast
  GI50: 0.0233 µM
  TGI: 0.141 µM
COLO 205 colon
  GI50: < 0.01 µM
  TGI: 0.0837 µM
T-47D breast
  GI50: 0.0331 µM
  TGI: 2.01 µM
OVCAR-8 ovarian
  GI50: 0.0213 µM
  TGI: 1.68 µM
LOX IMVI melanoma
  GI50: < 0.01 µM
  TGI: 0.14 µM
EKVX NSCLC
  GI50: 0.0259 µM
  TGI: 0.998 µM
